From patent US11072616B2, “Cyclic peptides targeting alpha-4-beta-7 integrin” (Zealand Pharma A/S, priority 2015, dated 2021)

Target: T1, integrin α4β7 (Homo sapiens, UniProt P13612+P26010)
T1 sequence (P13612 34-977 limits assumed): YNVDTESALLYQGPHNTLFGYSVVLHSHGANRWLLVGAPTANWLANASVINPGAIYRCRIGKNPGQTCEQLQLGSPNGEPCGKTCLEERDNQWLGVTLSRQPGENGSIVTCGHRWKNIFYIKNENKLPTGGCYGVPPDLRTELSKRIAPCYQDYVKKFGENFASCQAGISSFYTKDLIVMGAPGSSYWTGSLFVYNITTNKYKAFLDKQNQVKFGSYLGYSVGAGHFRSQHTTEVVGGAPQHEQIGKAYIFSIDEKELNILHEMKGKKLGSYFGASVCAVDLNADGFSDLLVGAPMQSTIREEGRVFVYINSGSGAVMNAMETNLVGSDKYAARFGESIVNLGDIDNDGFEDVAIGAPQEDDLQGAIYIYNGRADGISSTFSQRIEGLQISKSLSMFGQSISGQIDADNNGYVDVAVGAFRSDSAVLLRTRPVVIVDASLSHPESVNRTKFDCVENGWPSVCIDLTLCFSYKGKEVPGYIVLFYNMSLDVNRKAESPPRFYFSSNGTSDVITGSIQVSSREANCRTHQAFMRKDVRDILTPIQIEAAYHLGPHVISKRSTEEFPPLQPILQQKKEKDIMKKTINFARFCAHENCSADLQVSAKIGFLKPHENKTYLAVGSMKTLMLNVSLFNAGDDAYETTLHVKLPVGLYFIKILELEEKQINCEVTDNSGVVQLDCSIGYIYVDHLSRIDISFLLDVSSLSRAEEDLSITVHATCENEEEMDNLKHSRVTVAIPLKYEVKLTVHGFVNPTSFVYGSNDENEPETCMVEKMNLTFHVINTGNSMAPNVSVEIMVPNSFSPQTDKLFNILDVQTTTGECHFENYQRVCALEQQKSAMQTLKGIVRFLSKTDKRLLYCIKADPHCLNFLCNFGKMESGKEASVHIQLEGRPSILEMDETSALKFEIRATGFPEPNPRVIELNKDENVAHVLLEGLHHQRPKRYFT
T1 sequence (P26010 20-723 limits assumed): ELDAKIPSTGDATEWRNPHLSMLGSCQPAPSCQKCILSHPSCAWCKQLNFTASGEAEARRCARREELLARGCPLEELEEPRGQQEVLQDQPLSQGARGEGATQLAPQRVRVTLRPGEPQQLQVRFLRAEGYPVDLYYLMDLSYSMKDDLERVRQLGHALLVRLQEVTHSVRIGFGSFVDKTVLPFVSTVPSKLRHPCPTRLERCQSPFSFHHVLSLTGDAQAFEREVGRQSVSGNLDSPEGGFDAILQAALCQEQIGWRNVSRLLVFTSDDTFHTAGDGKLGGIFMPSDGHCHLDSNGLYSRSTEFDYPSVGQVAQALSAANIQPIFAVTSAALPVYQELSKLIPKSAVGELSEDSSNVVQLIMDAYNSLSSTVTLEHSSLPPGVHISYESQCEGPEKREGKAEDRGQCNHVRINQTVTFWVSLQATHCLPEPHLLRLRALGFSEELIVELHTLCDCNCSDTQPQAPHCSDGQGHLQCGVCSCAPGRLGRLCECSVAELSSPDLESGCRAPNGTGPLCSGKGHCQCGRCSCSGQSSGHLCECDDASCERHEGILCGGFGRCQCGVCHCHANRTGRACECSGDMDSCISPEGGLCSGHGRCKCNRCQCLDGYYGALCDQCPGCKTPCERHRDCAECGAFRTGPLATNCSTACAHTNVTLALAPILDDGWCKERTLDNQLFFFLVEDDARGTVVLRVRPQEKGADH
Experiment: Integrin α4β7—MAdCAM-1 competition assay (ELISA)
Assay type: binding
Conditions: not given
Description: Integrin α4β7—MAdCAM-1 Competition Assay
The plate was incubated at 4° C. overnight. […] The plate was then incubated for 1 hour at room temperature. The plate was washed three times with wash buffer (50 mM Tris, 100 mM NaCl, 1 mM MnCl2, 0.05% Tween). To each well, 50 μl of compound diluted in assay buffer was added by transfer from a compound serial dilution plate. […] The plate was incubated at room temperature with shaking for 2 hours to reach binding equilibrium. Then the plate was washed three times in wash buffer and 100 μl anti-human IgG Fc specific-horseradish peroxidase (HRP) (Abcam, Ab97225) diluted at 1:2000 in assay buffer was added to each well. The plate was incubated at room temperature for 1 hour under agitation. The plates were then washed three times and 100 μl of 1,3′,5,5′-tetramethylbenxidie (TMB) was then added to each well.

Row | SMILES | Selectivity ELISA
1 | CC(C)C[C@@H]1NC(=O)c2ccc(-c3ccc(N4CCN(C(=O)COCC(=O)N5CCN(c6ccc(-c7ccc8cc7CNC(=O)[C@@H]7CCCN7[C@H](C(=O)NC(C)(C)C)[C@H](C)NC(=O)[C@H]([C@@H](C)O)NC(=O)[C@H](CC(=O)O)NC(=O)[C@H](CC(C)C)NC8=O)cc6)CC5)CC4)cc3)c(c2)CNC(=O)[C@@H]2CCCN2[C@H](C(=O)NC(C)(C)C)[C@H](C)NC(=O)[C@H]([C@@H](C)O)NC(=O)[C@H](CC(=O)O)NC1=O [Compound 390] | 1.749

Same assay, conditions: ratio a4b1 ELISA IC50 / a4b7 ELISA IC50

Row | SMILES | Selectivity ELISA
2 | CC(C)C[C@@H]1NC(=O)[C@H]2CCCN2C(=O)[C@H](Cc2cc(Br)c(O)c(Br)c2)NC(=O)[C@@H]2CCCN2[C@H](C(=O)NC(C)(C)C)[C@H](C)NC(=O)[C@H]([C@@H](C)O)NC(=O)[C@H](CC(=O)O)NC1=O [Compound 129] | 9.7
3 | CC(C)C[C@@H]1NC(=O)CN(C)C(=O)[C@H](Cc2ccc(-c3ccccc3)cc2)NC(=O)[C@@H]2CCCN2[C@H](C(=O)NC(C)(C)C)[C@H](C)NC(=O)[C@H]([C@@H](C)O)NC(=O)[C@H](CC(=O)O)NC1=O [Compound 116] | 8.4
4 | Cc1cccc(C)c1-c1ccc(C[C@@H]2NC(=O)[C@@H]3CCCN3[C@H](C(=O)NC(C)(C)C)[C@H](C)NC(=O)[C@H]([C@@H](C)O)NC(=O)[C@H](CC(=O)O)NC(=O)[C@H](CC(C)C)NC(=O)C[C@H](CCCCN)NC2=O)cc1 [Compound 268] | 24.6
5 | CC(C)C[C@@H]1NC(=O)[C@H](Cc2ccc(-c3ccccc3)cc2)NC(=O)[C@@H]2C[C@@H](F)CN2[C@H](C(=O)NC(C)(C)C)[C@H](C)NC(=O)[C@H]([C@@H](C)O)NC(=O)[C@H](CC(=O)O)NC1=O [Compound 46] | 2.4
6 | CC(C)C[C@@H]1NC(=O)c2ccc(-c3cccc4ncccc34)c(c2)CNC(=O)[C@@H]2CCCN2[C@H](C(=O)NC(C)(C)C)[C@H](C)NC(=O)[C@H]([C@@H](C)O)NC(=O)[C@H](CC(=O)O)NC1=O [Compound 347] | 1.3
7 | COc1ccc(-c2ccccc2C[C@@H]2NC(=O)[C@@H]3CCCN3[C@H](C(=O)NC(C)(C)C)[C@H](C)NC(=O)[C@H]([C@@H](C)O)NC(=O)[C@H](CC(=O)O)NC(=O)[C@H](CC(C)C)NC(=O)[C@H]3CCCCN3C2=O)cc1 [Compound 137] | 7.8
8 | CCC[C@@H]1NC(=O)[C@@H]2CCCN2[C@H](C(=O)NC(C)(C)C)[C@H](C)NC(=O)[C@H]([C@@H](C)O)NC(=O)[C@H](CC(=O)O)NC(=O)[C@H](CC(C)C)NC1=O [Compound 71] | 4.4
9 | CC(C)C[C@@H]1NC(=O)c2ccc(-c3cccc(CN)c3)c(c2)CNC(=O)[C@H](Cc2ccc(O)cc2)NC(=O)[C@@H]2CCCN2[C@H](C(=O)NC(C)(C)C)[C@H](C)NC(=O)[C@H]([C@@H](C)O)NC(=O)[C@H](CC(=O)O)NC1=O [Compound 339] | 5.8
10 | CC(C)C[C@@H]1NC(=O)c2ccc(-c3ccncc3)c(c2)CNC(=O)[C@H](Cc2ccc(O)cc2)NC(=O)[C@@H]2CCCN2[C@H](C(=O)NC(C)(C)C)[C@H](C)NC(=O)[C@H]([C@@H](C)O)NC(=O)[C@H](CC(=O)O)NC1=O [Compound 337] | 2.9
11 | CC(C)C[C@@H]1NC(=O)[C@H](Cc2csc(-c3ccccn3)n2)NC(=O)[C@@H]2CCCN2[C@H](C(=O)NC(C)(C)C)[C@H](C)NC(=O)[C@H]([C@@H](C)O)NC(=O)[C@H](CC(=O)O)NC1=O [Compound 95] | 2.4
12 | C=CCOc1ccc(C[C@@H]2NC(=O)[C@@H]3CCCN3[C@H](C(=O)NC(C)(C)C)[C@H](C)NC(=O)[C@H]([C@@H](C)O)NC(=O)[C@H](CC(=O)O)NC(=O)[C@H](CC(C)C)NC(=O)[C@@H](C(C)C)NC2=O)cc1 [Compound 166] | 7.7
13 | COc1ccc(C[C@@H]2NC(=O)[C@@H]3CCCN3[C@H](C(=O)NC(C)(C)C)[C@H](C)NC(=O)[C@H]([C@@H](C)O)NC(=O)[C@H](CC(=O)O)NC(=O)[C@H](CC(C)C)NC(=O)[C@H]3CCCN3C2=O)cc1OC [Compound 127] | 7.8
14 | CC(C)C[C@@H]1NC(=O)C[C@H](CCCCN)NC(=O)CN(Cc2ccccc2)C(=O)[C@@H]2CCCN2[C@H](C(=O)NC(C)(C)C)[C@H](C)NC(=O)[C@H]([C@@H](C)O)NC(=O)[C@H](CC(=O)O)NC1=O [Compound 296] | 94.8
15 | CC[C@H](C)[C@@H]1NC(=O)[C@H](CC(=O)O)NC(=O)[C@H](CC(C)C)NC(=O)C[C@H](CCCCN)NC(=O)[C@@H](Cc2ccc(CN)cc2)NC(=O)[C@@H]2CCCN2[C@H](C(=O)NC(C)(C)C)[C@H](C)NC1=O [Compound 253] | 15.6
16 | CC(C)C[C@@H]1NC(=O)[C@@H](CCCCN)NC(=O)[C@H](Cc2ccc(O)cc2)NC(=O)[C@@H]2CCCN2[C@H](C(=O)NC(C)(C)C)[C@H](C)NC(=O)[C@H]([C@@H](C)O)N(C)C(=O)[C@H](CC(=O)O)NC1=O [Compound 121] | 11.4
17 | CC(C)C[C@@H]1NC(=O)CN(C)C(=O)[C@H](Cc2ccc(I)cc2)NC(=O)[C@@H]2CCCN2[C@H](C(=O)NC(C)(C)C)[C@H](C)NC(=O)[C@H]([C@@H](C)O)NC(=O)[C@H](CC(=O)O)NC1=O [Compound 107] | 16.0
18 | CC(C)C[C@@H]1NC(=O)[C@@H](CCCCN)NC(=O)[C@H](Cc2ccc(-c3ccccc3)cc2)NC(=O)[C@@H]2CCCN2[C@H](C(=O)NC(C)(C)C)[C@H](C)NC(=O)[C@H]([C@@H](C)O)NC(=O)[C@H](CC(=O)O)NC1=O [Compound 110] | 21.3
19 | CC(C)C[C@@H]1NC(=O)C[C@H](CCCCN)NC(=O)[C@](C)(Cc2ccccc2)NC(=O)[C@@H]2CCCN2[C@H](C(=O)NC(C)(C)C)[C@H](C)NC(=O)[C@H]([C@@H](C)O)NC(=O)[C@H](CC(=O)O)NC1=O [Compound 263] | 23.1
20 | C=CCOc1ccc(C[C@@H]2NC(=O)[C@@H]3CCCN3[C@H](C(=O)NC(C)(C)C)[C@H](C)NC(=O)[C@H]([C@@H](C)O)NC(=O)[C@H](CC(=O)O)NC(=O)[C@H](CC(C)C)NC(=O)CNC2=O)cc1 [Compound 163] | 11.0
21 | CC(C)C[C@@H]1NC(=O)c2cc(cc(-c3ccncc3)c2)CNC(=O)[C@@H]2CCCN2[C@H](C(=O)NC(C)(C)C)[C@H](C)NC(=O)[C@H]([C@@H](C)O)NC(=O)[C@H](CC(=O)O)NC1=O [Compound 362] | 5.6
22 | CC[C@H](C)[C@@H]1NC(=O)[C@H](CC(=O)O)NC(=O)[C@H](CC(C)C)NC(=O)C[C@H](CCCCN)NC(=O)[C@H](Cc2ccc(CN)cc2)NC(=O)[C@@H]2CCCN2[C@H](C(=O)NC(C)(C)C)[C@H](C)NC1=O [Compound 215] | 12.4
23 | CC(C)C[C@@H]1NC(=O)[C@H](Cc2cccnc2)NC(=O)[C@@H]2C[C@@H](O)CN2[C@H](C(=O)NC(C)(C)C)[C@H](C)NC(=O)[C@H]([C@@H](C)O)NC(=O)[C@H](CC(=O)O)NC1=O [Compound 44] | 2.3
24 | CC(C)C[C@@H]1NC(=O)[C@H](Cc2ccccc2)NC(=O)[C@@H]2C[C@@H](F)CN2[C@H](C(=O)NC(C)(C)C)[C@H](C)NC(=O)[C@H]([C@@H](C)O)NC(=O)[C@H](CC(=O)O)NC1=O [Compound 45] | 3.2
